Starred links: 1 amine or outer side, 2 acyl side, 3 side chain; linkers in the order of their positions; H or OH if unused. Positions of bridges follow the written chain, without caps; N, C: chain ends. Non-standard residues stand in square brackets, D forms with d. Residues, ends and D or L forms follow the SMILES beside them. *: point of attachment. X1 = CC[C@H](C)[C@@H](N[*:1])[C@@H](O)CC(=O)O[C@H](C(=O)[C@H](C)C(=O)[*:2])C(C)C; NMeY = CN[C@@H](Cc1ccc(O)cc1)C(=O)O; dNMeL = CN[C@H](CC(C)C)C(=O)O; Pyruvoyl = CC(=O)C(=O)*
How the values were obtained:
MIA PaCa-2 cell line = assay: In vitro cytotoxicity, MTS/PMS assay, single agents; assay type: cell-based; conditions: Homo sapiens; MIA PaCa-2, 96 hours exposure, MTS/PMS viability
Protocol: (§1) PANC-1 (ATCC CRL-1469) and MIA PaCa-2 (ATCC CRL-1420) cell lines obtained from ATCC (Rockville, Md.) were used to check the cytotoxicity of Aplidine and Gemcitabine hydrochloride salt in human pancreas carcinoma cell lines. These cell lines were maintained in Dulbecco's modified Eagle medium with 4 mmol/L glutamine containing 10% Fetal Bovine Serum (FBS), and 1% Penicillin/Streptomycin solution, at 37° C. in humidified atmosphere of 5% CO2.
(§2) Four thousand cells/well were plated in a 96/wells tissue culture plate and exposed to different concentrations of Aplidine or Gemcitabine for 96 hours at 37° C. and 5% CO2. At the end of the incubation the viability of the cells was tested with the MTS/PMS assay (Riss T L and Moravec R A, Mol. Biol. Cell, 1992, 3, 184a). Cell viability was correlated to the amount of formazan quantified spectrophotometrically at 450 nm (reference wavelength 670 nm) using a microplate reader (SpectraMax® Plus^384, Molecular Devices, Sunnyvale, Calif.).

PANC-1 cell line = assay: as above; assay type: cell-based; conditions: Homo sapiens; PANC-1, 96 hours exposure, MTS/PMS viability
Protocol: as §1, §2

PANC-1 cells = assay: Pancreatic cancer xenograft model, tumor volume; assay type: in vivo, NCR Nu/Nu mice; conditions: median tumor volume
Excerpt: Pathogen-free NCR Nu/Nu mice, of 5 to 6 weeks old and purchased from Taconic Farms (Germantown, N.Y.), were housed in microisolator cages under specific pathogen-free conditions. The animals were provided autoclaved food and water ad libitum.
Mice were inoculated subcutaneously in the right flank with 0.5×10^7 PANC-1 cells containing 10% matrigel.
As mentioned before, the vehicle used for the administration of Aplidine contained 15% Cremophor EL/15% Ethanol/70% WFI diluted in saline, whereas Gemcitabine was prepared in saline in order to be administered.
Both drugs were administered intra-peritoneally. […] Tumor size and weight of the animals were recorded every other day, starting from the first day of treatment. Tumor volume was calculated according to the formula:
tumor volume (mm^3)=(longer diameter)×[(shorter diameter)^2]/2.
Comparison of the median tumor volume in the treatment groups (T) to the median tumor volume in the control group (C) [T/C] on day 20 was used for evaluation of tumor efficacy. % T/C [T/C×100%] for each treatment is reported in Table 3.

[1] = tested on: AML and ALL samples from pediatric patients; conditions: 5 nM; de novo or relapsed ALL and AML; cited from earlier work

## Nc1ccn([C@@H]2O[C@H](CO)[C@@H](O)C2(F)F)c(=O)n1 [Gemcitabine, reference compound]
MIA PaCa-2 cell line
  IC50: 150 nM
PANC-1 cell line
  IC50: 1000 nM
PANC-1 cells; Gemcitabine 250 mg/kg on day 1, 4, 8 & 12, intra-peritoneally
  % T/C on day 20: 45%

## CC[C@H](C)[C@H]1NC(=O)[C@@H](NC(=O)[C@@H](CC(C)C)N(C)C(=O)[C@@H]2CCCN2C(=O)C(C)=O)[C@@H](C)OC(=O)[C@H](Cc2ccc(OC)cc2)N(C)C(=O)[C@@H]2CCCN2C(=O)[C@H](CC(C)C)NC(=O)[C@@H](C)C(=O)[C@H](C(C)C)OC(=O)C[C@@H]1O [Aplidine] (Pyruvoyl-P[dNMeL]T[X1]LP[NMeY](Me); ester 3-C)
MIA PaCa-2 cell line
  IC50: 1 nM
PANC-1 cell line
  IC50: 1 nM
PANC-1 cells; Aplidine 0.6 mg/kg on day 1 and 8, intra-peritoneally
  % T/C on day 20: 23%
[1]
  In vitro cytotoxic activity: cytotoxic activity

Reference: patent US20100240595A1, “Improved Antitumoral Treatments” (PHARMA MAR ,S.A., priority 2007, published 2010)
